Test results published in US4395969A (priority 1981, dated 1983).

How the values were obtained:
bridgelip sucker = test: Selectivity and safety indices of salmonids versus the bridgelip sucker; format: in vivo, Catastomus columbianus; conditions: 96 h
Source text: (§1) Delineation bioassays determined primarily the LC50 and LC100 of sucker and stickleback and the LC0 and LC50 of salmonids.
(§2) The statistical LC1, LC50, and LC99 were interpolated and/or extrapolated using probit graph paper to approximate the LC0, LC50, and LC100 when the latter set of values was not closely determined by single concentrations in a series.
(§3) The approximate LC50 and LC100 of the target fishes (threespine and brook sticklebacks and bridgelip and white suckers) are tabulated in Table 1. The 96-hour selectivity and safety indices of selected species of salmonids versus the three-spine stickleback are tabulated in Table 3.
(§4) Threespine stickleback, brook stickleback, bridgelip sucker, white sucker, chinook salmon, coho salmon, sockeye salmon, kokanee, Kamloops trout, cutthroat trout, and brook trout were treated with various concentrations of 2, 2, 2, 1-tetrachloroethyl diethyl phosphate and at various temperatures to determine approximate selectivity and safety indices. The approximate LC50 and LC100 of the target fishes (threespine and brook sticklebacks and bridgelip and white suckers) are tabulated in Table 5. The 96-hour selectivity and safety indices of selected species of salmonids versus the threespine stickleback are tabulated in Table 7.

crayfish = test: Bioassay, crayfish; format: in vivo, Pacifasticus klamathensis; conditions: 10 C
Method: Cursory bioassays were made with small numbers of other fishes and a crayfish (Pacifasticus klamathensis) to check on the universal selectivity of the toxicants. The fishes included Arctic grayling (Thymallus arcticus), longnose sucker (C. catastomus), largescale sucker, (C. macrocheilus), and spotted sucker (Minytrema melanops).
A series of bioassays tested crayfish (9 to 10 crayfish per aquarium) at concentrations of 1, 3, and 10 mg/l of 2, 2-dichlorovinyl diethyl phosphate. […] A second series of bioassays tested crayfish (10 crayfish per aquarium) at 10 concentrations of 2, 2, 2, 1-tetrachloroethyl diethyl phosphate (range, 0 to 1400 μg/l).

in vivo = conditions: chinook salmon
[1] = Static bioassay, lethal concentration to sockeye salmon; format: in vivo, O. nerka; conditions: sockeye salmon, in vivo
Method: (§5) Bioassays utilized water from an artesian well at Moscow, Idaho and from the headwaters of the Palouse River, also in Idaho. The chemical characteristics of the artesian water were analyzed as follows: Total hardness 67-120 mg/l; total dissolved solids, 160-175 mg/l; and pH 7.1. The chemistry of the Palouse River water was analyzed as follows: total hardness 17 mg/l; methyl orange alkalinity 26 mg/l; total dissolved solids, 32 mg/l and pH, 7.0.
(§6) Fish were acclimated to test temperatures, usually at 5, 7.5, 10, 15 and 20 degrees Celsius (C), at least 60 hours before exposure to toxicants. For fish and crayfish four water baths regulated the temperature of assay aquaria. Each water bath contained a battery of 20 identical 19-liter clear glass containers or 11.4-liter plastic aquaria lined with disposable polyethylene bags and covered with Plexiglass lids to reduce evaporation. For larger fish and large numbers of fish the bioassays were made in two temperature controlled rooms that contained a series of 700-liter circular fiberglass vats and a series of 76- and 91-liter plastic containers.
(§7) Standard bioassay techniques were used in sorting fish and conducting the tests. Fish were placed in aerated test aquaria overnight to permit fish to recover from stress due to handling and to deprive them of food. The average load varied but most bioassays were conducted with about 1 g of fish per liter of water.
(§8) Aliquots of organophosphates were dissolved in ethanol and dispensed to the aquaria to provide concentrations suitable for obtaining the LC0 and LC50 of desirable fish and the LC50 and LC100 of target fish. Control fish were conditioned in the same manner as the test fish, but no chemical was added to the control vessels during the assays. After the addition of a chemical, observations were made mainly at 3, 6, 12, 24, 48, 96, and 192 h. The weight and fork length of fish were obtained when fishes were sacrificed.
as §1, §2, §3, §4

threespine stickleback = tested on: threespine stickleback; design: species or system Gasterosteus aculeatus; conditions: in vivo
brook stickleback = test: Static bioassay, lethal concentration to brook stickleback; format: in vivo, Eucalia inconstans; conditions: 15 C
Method: as §5, §6, §7, §8, §1, §2, §3, §4

sucker and stickleback = conditions: in vivo
white sucker = test: Static bioassay, lethal concentration to white sucker; format: in vivo, C. commmersoni
Method: as §5, §6, §7, §8, §1, §2, §3, §4

cutthroat trout = test: Static bioassay, lethal concentration to cutthroat trout; format: in vivo, S. clarki
Method: as §5, §6, §7, §8, §1, §2, §3, §4

[2] = as above; format: in vivo, S. clarki; conditions: cutthroat trout, water
Method: as §5, §6, §7, §8, §1, §2, §3, §4

[3] = Static bioassay, lethal concentration to brook trout; format: in vivo, Salvelinus fontinalis; conditions: brook trout, water, 15 C
Method: as §5, §6, §7, §8, §1, §2, §3, §4

brook trout = test: as above; format: in vivo, Salvelinus fontinalis; conditions: 15 C
Method: as §5, §6, §7, §8, §1, §2, §3, §4

chinook salmon = test: Long-term static bioassay, chinook salmon; conditions: 64 days, 10 C, individually
[4] = 10 C, individually, read-out: LC50
[5] = with 4 Cl 300:1, 10 C, read-out: LC50 in combination, 2 Cl component
[6] = with 2 Cl 1:300, 10 C, read-out: LC50 in combination, 4 Cl component

CCOP(=O)(OC=C(Cl)Cl)OCC [2,2-dichlorovinyl diethyl phosphate]
Safety index (LC0/LC100) (bridgelip sucker; Kamloops, 5 C): 7
Selectivity index (LC50/LC50) (bridgelip sucker; Kamloops, 5 C): > 34
Safety index (LC0/LC100) (bridgelip sucker; Kamloops, 10 C): 20
Selectivity index (LC50/LC50) (bridgelip sucker; Kamloops, 10 C): 67
Safety index (LC0/LC100) (bridgelip sucker; Kamloops, 15 C): 10
Selectivity index (LC50/LC50) (bridgelip sucker; Kamloops, 15 C): 70
Safety index (LC0/LC100) (bridgelip sucker; brook trout, 15 C): 20
Selectivity index (LC50/LC50) (bridgelip sucker; brook trout, 15 C): 66
Safety index (LC0/LC100) (bridgelip sucker; chinook, 10 C): 60
Selectivity index (LC50/LC50) (bridgelip sucker; chinook, 10 C): 87
Safety index (LC0/LC100) (bridgelip sucker; chinook, 15 C): 27
Selectivity index (LC50/LC50) (bridgelip sucker; chinook, 15 C): 68
Safety index (LC0/LC100) (bridgelip sucker; cutthroat, 10 C): 40
Selectivity index (LC50/LC50) (bridgelip sucker; cutthroat, 10 C): > 60
Safety index (LC0/LC100) (bridgelip sucker; cutthroat, 15 C): 20
Selectivity index (LC50/LC50) (bridgelip sucker; cutthroat, 15 C): 50
Safety index (LC0/LC100) (bridgelip sucker; sockeye, 7.5 C): 30
Selectivity index (LC50/LC50) (bridgelip sucker; sockeye, 7.5 C): 100
Safety index (LC0/LC100) (bridgelip sucker; sockeye, 10 C): 30
Selectivity index (LC50/LC50) (bridgelip sucker; sockeye, 10 C): 75
Safety index (LC0/LC100) (bridgelip sucker; steelhead, 5 C): 13
Selectivity index (LC50/LC50) (bridgelip sucker; steelhead, 5 C): 47
crayfish mortality (crayfish; 1 mg/l, 96 h): No crayfish died
crayfish mortality (crayfish; 3 mg/l, 96 h): 1 out of 9 crayfish died
crayfish mortality (crayfish; 10 mg/l, 24 h): No crayfish died
LC50 at 192 h (in vivo): 5 µg/mL
LC50 at 48 h ([1]; 7.5 C): > 10 µg/mL
LC50 at 96 h ([1]; 7.5 C, read-out: LC50): 9 µg/mL
LC50 at 192 h ([1]; 7.5 C, read-out: LC50): 4 µg/mL
LC50 at 48 h ([1]; 10 C): > 8 µg/mL
LC50 at 96 h [1, 4]: 6 µg/mL
LC50 at 96 h ([1]; 10 C, read-out: LC50): 6 µg/mL
LC50 at 192 h [1, 4]: 3.6 µg/mL
LC50 at 192 h ([1]; 10 C, read-out: LC50): 3.4 µg/mL
LC50 at 96 h [1, 5]: 2.4 µg/mL
LC50 at 192 h [1, 5]: 1.8 µg/mL
Selectivity index (LC50/LC50) (threespine stickleback): 5.7
LC50 (brook stickleback; 24 h): 0.8 µg/mL
LC100 (brook stickleback; 24 h): 1.0 mg/L
LC50 (brook stickleback; 48 h): 0.4 µg/mL
LC100 (brook stickleback; 48 h): 0.6 mg/L
LC50 (brook stickleback; 96 h): 0.4 µg/mL
LC100 (brook stickleback; 96 h): 0.6 mg/L
LC50 (brook stickleback; 192 h): 0.3 µg/mL
LC100 (brook stickleback; 192 h): 0.6 mg/L
potency for suckers relative to stickleback (sucker and stickleback): about 10 times
LC50 (white sucker; 20 C, 24 h): 0.10 µg/mL
LC50 (white sucker; 20 C, 48 h): 0.07 µg/mL
LC50 (white sucker; 20 C, 96 h): 0.06 µg/mL
LC100 (white sucker; 20 C, 96 h): 0.10 mg/L
LC50 (white sucker; 20 C, 192 h): 0.05 µg/mL
LC100 (white sucker; 20 C, 192 h): 0.10 mg/L
LC0 (cutthroat trout; 10 C, 96 h): 4000 µg/L
LC0 (cutthroat trout; 15 C, 48 h): 4000 µg/L
LC0 (cutthroat trout; 15 C, 96 h): 2000 µg/L
LC0 (cutthroat trout; 15 C, 192 h): 1000 µg/L
LC50 at 192 h ([2]; 10 C): 4.8 µg/mL
LC50 at 48 h ([2]; 15 C): 5.3 µg/mL
LC50 at 96 h ([2]; 15 C): 2.5 µg/mL
LC50 at 192 h ([2]; 15 C): 1.8 µg/mL
LC50 at 48 h [3]: 5 µg/mL
LC50 at 96 h [3]: 3.3 µg/mL
LC50 at 192 h [3]: 3.2 µg/mL
LC0 (brook trout; 48 h): 4.0 mg/L
LC0 (brook trout; 96 h): 2.0 mg/L
LC0 (brook trout; 192 h): 0.8 mg/L
mortality (chinook salmon; 300 μg/l): essentially no mortality
mortality (chinook salmon; 300 μg/l, listed as 2, 2-dichlorovinyl diethyl phosphate): no significant mortality

CCOP(=O)(OCC)OC(Cl)C(Cl)(Cl)Cl (stereo not drawn) [2,2,2,1-tetrachloroethyl diethyl phosphate]
Safety index (LC0/LC100) (bridgelip sucker; Kamloops, 5 C): 2.4
Selectivity index (LC50/LC50) (bridgelip sucker; Kamloops, 5 C): 4.3
Safety index (LC0/LC100) (bridgelip sucker; Kamloops, 10 C): 1.8
Selectivity index (LC50/LC50) (bridgelip sucker; Kamloops, 10 C): 6.0
Safety index (LC0/LC100) (bridgelip sucker; Kamloops, 15 C): 2.1
Selectivity index (LC50/LC50) (bridgelip sucker; Kamloops, 15 C): 6.0
Safety index (LC0/LC100) (bridgelip sucker; brook trout, 15 C): 1.4
Selectivity index (LC50/LC50) (bridgelip sucker; brook trout, 15 C): 5.0
Safety index (LC0/LC100) (bridgelip sucker; chinook, 10 C): 2.4
Selectivity index (LC50/LC50) (bridgelip sucker; chinook, 10 C): 6.3
Safety index (LC0/LC100) (bridgelip sucker; coho, 10 C): 1.7
Selectivity index (LC50/LC50) (bridgelip sucker; coho, 10 C): 5.8
Safety index (LC0/LC100) (bridgelip sucker; cutthroat, 10 C): 1.7
Selectivity index (LC50/LC50) (bridgelip sucker; cutthroat, 10 C): 4.8
Safety index (LC0/LC100) (bridgelip sucker; cutthroat, 15 C): 2.0
Selectivity index (LC50/LC50) (bridgelip sucker; cutthroat, 15 C): 4.5
Safety index (LC0/LC100) (bridgelip sucker; kokanee, 15 C): 2.9
Selectivity index (LC50/LC50) (bridgelip sucker; kokanee, 15 C): 7.5
Safety index (LC0/LC100) (bridgelip sucker; sockeye, 10 C): 1.4
Selectivity index (LC50/LC50) (bridgelip sucker; sockeye, 10 C): 7.5
concentration at which no crayfish died (crayfish; 96 h): ≤ 200 ng/mL
LC50 at 48 h (in vivo): 0.035 µg/mL
LC50 at 96 h (in vivo): 0.025 µg/mL
LC50 at 192 h (in vivo): 0.025 µg/mL
LC50 at 48 h ([1]; 7.5 C): 0.05 µg/mL
LC50 at 96 h ([1]; 7.5 C, read-out: LC50): 0.02 µg/mL
LC50 at 192 h ([1]; 7.5 C, read-out: LC50): 0.014 µg/mL
LC50 at 48 h ([1]; 10 C): 0.03 µg/mL
LC50 at 96 h [1, 4]: 0.017 µg/mL
LC50 at 192 h [1, 4]: 0.016 µg/mL
LC50 at 96 h [1, 6]: 0.008 µg/mL
LC50 at 192 h [1, 6]: 0.006 µg/mL
Safety index (LC0/LC100) (threespine stickleback; 5760 min): 2.3
LC50 (brook stickleback; 24 h): 0.006 µg/mL
LC100 (brook stickleback; 24 h): 0.01 mg/L
LC100 (brook stickleback; 48 h): 0.008 mg/L
LC100 (brook stickleback; 96 h): 0.006 mg/L
activity relative to the dichloro-compounds (sucker and stickleback): about 100 times
recommended safe and effective concentration (sucker and stickleback): 20 µg/L
LC50 (white sucker; 15 C, 24 h): 0.004 µg/mL
LC100 (white sucker; 15 C, 24 h): 0.01 mg/L
LC50 (white sucker; 15 C, 48 h): < 0.003 µg/mL
LC100 (white sucker; 15 C, 48 h): 0.01 mg/L
LC0 (cutthroat trout; 10 C, 96 h): 14 µg/L
LC0 (cutthroat trout; 10 C, 192 h): 14 µg/L
LC0 (cutthroat trout; 15 C, 48 h): 14 µg/L
LC0 (cutthroat trout; 15 C, 96 h): 14 µg/L
LC0 (cutthroat trout; 15 C, 192 h): 14 µg/L
LC50 at 96 h ([2]; 10 C): 0.019 µg/mL
LC50 at 192 h ([2]; 10 C): 0.017 µg/mL
LC50 at 48 h ([2]; 15 C): 0.022 µg/mL
LC50 at 96 h ([2]; 15 C): 0.018 µg/mL
LC50 at 192 h ([2]; 15 C): 0.018 µg/mL
LC50 at 48 h [3]: 0.022 µg/mL
LC50 at 96 h [3]: 0.02 µg/mL
LC50 at 192 h [3]: 0.02 µg/mL
LC0 (brook trout; 48 h): 0.01 mg/L
LC0 (brook trout; 96 h): 0.01 mg/L
LC0 (brook trout; 192 h): 0.01 mg/L
mortality (chinook salmon; 6 μg/l (or less)): Essentially no mortality
mortality (chinook salmon; 6 μg/l (or less), listed as 2, 2, 2, 1-tetrachloroethyl diethyl phosphate): no significant mortality
